Measured values as given in US7387998B2, “STQ peptides” (New York University, priority 2003, dated 2008).
Where a SMILES comes first, the peptide text is derived from it.

What was measured:
[1] = tested on: bFGF-induced angiogenesis in chorioallantoic membrane (CAM); test: bFGF-induced angiogenesis in the chick CAM model; format: in vivo; conditions: single intravenous injection 100 ug/embryo
Description: One angiogenesis assay measures angiogenesis in the chick chorioallantoic membrane (CAM) and is referred to as the CAM assay. The CAM assay is well known among those of ordinary skill in the art and has been used to measure both angiogenesis and neovascularization of tumor tissues (Ausprunk et al., Am. J. Pathol. 1975; 79:597-618 and Ossonski et al., Cancer Res. 1980; 40:2300-2309).
Angiogenesis was induced within the chorioallantoic membrane (CAM) of 10-day old chick embryos with bFGF. Twenty-four hours later, 8-10 of the embryos were treated with a single intravenous injection of STQ-peptide (100 ug/embryo). At the end of a 3-day incubation period, the CAM tissues were removed for analysis. […] The single injection of STQ-peptide inhibited bFGF by greater than 95% (FIG. 4). […] Eight to ten chick embryos were tested in each of the two groups, and the experiment was repeated three times for a total of 24-30 chick embryos tested.

[2] = tested on: metastatic B16 melanoma cells; test: B16 melanoma metastasis in chick embryo lungs; format: in vivo; conditions: 100 ug/embryo intravenously with cells; 7 days incubation; versus no-STQ-peptide group
Protocol: Twelve-day old chick embryos (obtained from SPAFAS, North Franklin, Conn.) were injected intravenously with metastatic B16 melanoma cells (Chambers, et al., J. Natl. Cancer Inst. 1992; 84:797-803) in the presence or absence of STQ-peptide (100 ug/embryo). For each experiment, eight to ten chicks were tested under each set of conditions, and the experiment was repeated three times. The embryos were incubated for 7 days and then sacrificed. The chick lungs were analyzed for metastasis. B16 melanoma metastases appeared as discrete black lesions. The metastases were quantified by counting the B16 tumor lesions on the surface of the chick lungs for the STQ-peptide and no-STQ-peptide groups. B16 melanoma metastasis was inhibited by greater than 95% in the STQ-peptide group as compared to the no-STQ-peptide group (FIG. 5).

[3] = tested on: RPE cells on native laminin; test: RPE cell adhesion to native laminin; format: cell-based, human; conditions: any concentration of STQ-peptide tested (FIG. 3)
Protocol: (§1) Human denatured laminin (25 μg/ml) was immobilized on 48-well non-tissue culture treated plates. Wells were washed and incubated with 1% BSA (bovine serum albumin) in PBS (phosphate-buffered saline) for one hour at 37° C. Subconfluent RPE cells were harvested, washed, and resuspended in adhesion buffer containing RPMI-1640 medium, 1 mM MgCl2, 0.2 mM MnCl2, and 0.5% BSA. RPE cells (10^5) were resuspended in 200 μl of the adhesion buffer in the presence or absence of STQ-peptide at a concentration of 100 μg/ml or 200 μg/ml, and were added to each well and allowed to attach for 30 minutes at 37° C. The unattached cells were removed and the attached cells were stained for 10 minutes with crystal violet as described by Petitclerc, et al., Cancer Res. 1999; 59:2724-2730. The wells were washed three times with PBS and cell-associated crystal violet was eluted by addition of 100 μl of 10% acetic acid. Cell adhesion was quantified by measuring the optical density of eluted crystal violet at a wavelength of 600 nm.
A set of non-tissue culture treated 48-well plates were coated with native laminin in the presence of different concentrations of STQ-peptide according to the method described in Example 2 and by Petticlerc, et al., Cancer Res. 1999; 59:2724-2730. […]

[4] = tested on: Human RPE cells on denatured laminin; test: RPE cell adhesion to denatured laminin; format: cell-based; conditions: for blockade of RPE cell adhesion to denatured laminin: 30 min attachment, crystal violet OD 600 nm
Protocol: In vitro cell adhesion assays were conducted to determine whether the STQ-peptides bind to functional epitopes within denatured laminin that regulate cellular adhesion. Non-tissue culture treated 48-well plates were coated with denatured laminin. Human RPE cells were allowed to attach to the coated wells in the absence of STQ-peptide, in the presence of STQ-peptide at a concentration of 100 μg/ml, and in the presence of STQ-peptide at a concentration of 200 μg/ml.
as §1
A set of non-tissue culture treated 48-well plates were coated with native laminin in the presence of different concentrations of STQ-peptide according to the method described in Example 2 and by Petticlerc, et al., Cancer Res. 1999; 59:2724-2730. Another set of non-tissue culture treated plates were coated with denatured laminin in the presence of different concentrations of STQ-peptide. […] STQ-peptide had little effect on RPE cell adhesion to the wells coated with native laminin at any concentration of STQ-peptide tested (FIG. 3).

[5] = tested on: Human M21 melanoma cells on denatured laminin; test: M21 melanoma cell adhesion to denatured laminin; format: cell-based; conditions: STQ-peptide-S 50 μg/ml
Protocol: as §1
(§2) An adhesion assay was performed according to the method described in Example 2 and by Petticlerc, et al., Cancer Res. 1999; 59:2724-2730. Non-tissue culture treated 48-well plates were coated with denatured laminin in the absence of STQ-peptide-S and in the presence of STQ-peptide-S at a concentration of 50 μg/ml. […]

[6] = tested on: murine B16 melanoma cells on denatured laminin; test: B16 melanoma cell adhesion to denatured laminin; format: cell-based; conditions: STQ-peptide-S 50 μg/ml
Protocol: as §1, §2

In the case of `CC[C@H](C)[C@H](NC(=O)[C@H](CC(C)C)NC(=O)[C@H](CO)NC(=O)[C@H](CC(C)C)NC(=O)[C@H](CC(C)C)NC(=O)[C@H](CCC(N)=O)NC(=O)[C@H](C)NC(=O)[C@H](CC(N)=O)NC(=O)[C@H](CCC(N)=O)NC(=O)[C@@H](NC(=O)[C@H](CO)NC(=O)[C@H](CS)NC(=O)CNC(=O)CNC(=O)[C@@H](N)CCCCN)[C@@H](C)O)C(=O)N[C@H](C(=O)NCC(=O)N[C@@H](CCCCN)C(=O)N[C@@H](C)C(=O)O)C(C)C` [STQ-peptide, NH2-K-G-G-C-S-T-Q-N-A-Q-L-L-S-L-I-V-G-K-A-COOH] (H-KGGCSTQNAQLLSLIVGKA-OH), the “adverse effects following injection” value ([1]; chick embryos) is reported as “No adverse effects”, the “inhibition of bFGF-induced angiogenesis (branching vessels)” value ([1]; 24 h after bFGF, 3-day incubation) is reported as “greater than 95%” and the “inhibition of B16 melanoma metastasis (lung surface lesions)” value [2] is reported as “greater than 95%”. The “effect on RPE cell adhesion to wells coated with native laminin” value [3] was “little effect”, the “blockade of RPE cell adhesion to denatured laminin” value ([4]; STQ-peptide 100 μg/ml) was “greater than 95%” and the “blockade of RPE cell adhesion to denatured laminin” value ([4]; STQ-peptide 200 μg/ml) was “greater than 95%”. For the same compound, the “inhibition of RPE cell adhesion to wells coated with denatured laminin” value ([4]; different concentrations of STQ-peptide (FIG. 3)) was “concentration dependent inhibition”.
In the case of “NH2-K-G-G-S-T-Q-N-A-Q-L-L-S-L-I-V-G-K-A-COOH (H-KGGSTQNAQLLSLIVGKA-OH) [STQ-peptide-S]”, the “blockade of M21 melanoma cell adhesion to denatured laminin” value [5] is reported as “approximately 80%” and the “blockade of B16 melanoma cell adhesion to denatured laminin” value [6] is reported as “approximately 80%”.
